Reference: PMC6115404 (2018)

Tested on: bcl2Mid (DNA, G4) GGGCGCGGGAGGAATTGGGCGGG
Assay: native PAGE
Conditions: K+ (25 mM K-phosphate, 70 mM KCl); samples pH 7.0; gel in TBE pH 8.0; higher-order assemblies at all equivalents

NCCNCCN.NCCNCCN.NCCNCCN.[Pt+2].[Pt+2].[Pt+2].c1cc(-c2ccc(N(c3ccc(-c4ccncc4)cc3)c3ccc(-c4ccncc4)cc3)cc2)ccn1
binding: yes
